Two compounds from patent publication US9834549B2, “3,3-disubstituted-(8-aza-bicyclo[3.2.1]OCT-8-yl)-[5-(1H-pyrazol-4-yl)-thiophen-3-yl]-methanones as inhibitors of 11 (β)-HSD1” (The University Of Edinburgh, priority 2010, dated 2017) can be followed below.

Read-outs that look alike come from different tables or passages of the source.

One may read the IC50 as the concentration needed to halve the response being measured.

Data set [1] deals with T1, human 11β-HSD1 (Homo sapiens, UniProt P28845).
T1 construct: stably transfected with a construct containing the full-length gene coding for the human 11β-HSD1 enzyme; expressed in transfected cells; host or cells: HEK293 (stably transfected, HEK293/11β-HSD1)
Description: Cellular in vitro 11β-HSD1 enzyme inhibition assay (SPA, HEK293/11β-HSD1 cells). It is filed as cell-based. How it is done:
Compounds were assessed by a Scintillation Proximity Assay (SPA) performed according to the following protocol:
HEK293 cells were stably transfected with a construct containing the full-length gene coding for the human 11β-HSD1 enzyme to create HEK293/11β-HSD1 cells. Cells were routinely cultured in DMEM containing 10% calf foetal serum, 1% glutamine, and 1% penicillin and streptomycin. Prior to assay, cells were plated at 2×10^4 cells/well in 96-well poly-D-Lys coated flat-bottomed microplates and incubated in 5% CO2, 95% O2 at 37° C. for 24 hours. The media in each well was removed immediately before assay.
Compounds to be tested were dissolved in DMSO at 10 mM and serially diluted into water containing 10% DMSO. Diluted compounds at a volume of 10 μL were added to wells of a 96-well V-bottomed microplate. A solution of DMEM, 1% glutamine, 1% penicillin and streptomycin, and 22 nM tritiated cortisone was prepared and 90 μL added to each well of the assay plate. This solution (100 μL/well) was transferred to the plate containing the cells. The plate was then incubated in 5% CO2, 95% O2 at 37° C. for 2 hours.
Following this incubation, 50 μL of the assay solution was transferred to each well of a 96-well scintillation microplate. A mixture consisting of anti-mouse YSi SPA beads, pre-mixed with anti-cortisol antibody in assay buffer (50 mM Tris.HCl, pH 7.0; 300 mM NaCl; 1 mM EDTA, 5% glycerol) was prepared and 50 μL added to each well of the scintillation microplate. An adhesive strip was applied to the microplate and the plate gently shaken for at least 2 hours at room temperature, and then spun briefly on a low speed centrifuge. The plate was read on a scintillation counter suitable for 96-well microplates. For the calculation of percentage inhibition, a series of wells were added to the plate that represented the assay maximum and the assay minimum: one set that contained substrate without cells (minimum) and another set that contained substrate and cells without any compound (maximum).
The calculation of median inhibitory concentration (IC50) values for the compounds was performed using GraphPad Prism® software. Dose-response curves for each compound were plotted as fractional inhibition and data fitted to the four parameter logistic equation.

Data set [2] in a line: Oral exposure and tissue distribution in rats. It counts as in vivo, male Sprague Dawley rats. The following applies: rat, oral 10 mg/kg; for Cmax: male, Sprague Dawley, plasma, read-out: Plasma Cmax (maximum plasma concentration). The method, then:
The circulating plasma levels and tissue distribution of certain compounds were determined following oral administration of compound (10 mg/kg) to male Sprague Dawley rats. Rats (n=3 per group) were culled at 1, 4 and 6 hours post dosing and trunk blood and tissues (liver, adipose and brain) excised. Blood samples at 30 minutes and 2 hours post dosing were taken by tail nick from the 4 hour and 6 hour rats respectively.
Compound was triple extracted from plasma (prepared from blood by a high speed centrifugation step) spiked with 1 μg of a standard compound using ethyl acetate. Extracts were dried under nitrogen and re-suspended in 60% methanol/40% ammonium acetate (5 mM).
A known weight of tissue was homogenized in 3 volumes Krebs buffer. Compound was triple extracted with ethyl acetate from the supernatant of a low speed spin spiked with 1 μg of a standard compound. Extracts were dried under nitrogen and re-suspended in 60% methanol/40% ammonium acetate (5 mM).
Samples from plasma and tissue were analyzed by TSQ Quantum Discovery Tandem Mass Spectrometer and Surveyor Liquid Chromatogram (Thermo, Hemel-Hempstead, UK). 10 μL of each sample was injected in a mobile phase consisting of 60%:40% methanol:5 mM ammonium acetate at a flow rate of 0.5 mL/minute. The column used was a BDS hypersil, C18, 50×2.1 mm with a 5 μm particle size.
Each compound was tuned with a spray voltage of 3000 V and a capillary temperature of 300° C. and values for tube lens, CID and product ions were determined.
The peak area for each compound and for the internal standard was determined and the concentration of compound per gram of tissue or mL of plasma was calculated by comparison of the peak area ratio to a standard curve.

The mark [3] stands for this setting: HEK293, potency groups, read-out: IC50 for 11β-HSD1 (HEK293).
The mark [4] stands for this setting: HEK293 cells transfected with human 11β-HSD1, first value in cell, read-out: IC50 for 11β-HSD1 (HEK293).
Setting [5] is: HEK293 cells, value marked * in brackets, read-out: IC50 for 11β-HSD1 (HEK293), (*) average of at least two individual experiments.

T1 sequence (P28845 whole entry): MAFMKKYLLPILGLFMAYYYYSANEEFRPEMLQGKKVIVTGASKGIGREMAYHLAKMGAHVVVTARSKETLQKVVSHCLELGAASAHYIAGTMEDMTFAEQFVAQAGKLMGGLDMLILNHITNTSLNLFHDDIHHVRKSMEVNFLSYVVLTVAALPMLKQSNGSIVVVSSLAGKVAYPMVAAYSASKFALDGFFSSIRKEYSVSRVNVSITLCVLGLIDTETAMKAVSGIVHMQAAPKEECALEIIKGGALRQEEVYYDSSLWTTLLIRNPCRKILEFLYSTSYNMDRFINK

As for `O=C(c1csc(-c2cn[nH]c2)c1)N1C2CCC1CC(O)(c1nccs1)C2` (stereo not shown) [XX-29], the IC50 is no more than 100 nM in data set [1] (setting [3]), 33 nM in data set [1] (setting [4]) and 31 nM in data set [1] (setting [5]). Besides, in data set [2], the Cmax fell in the range of 501 to 1000 ng/mL. For the same compound, in data set [2], the “Liver Cmax (maximum liver concentration)” value was “++ (3001-5000 ++)”.
`O=C(c1csc(-c2cn[nH]c2)c1)N1C2CCC1CC(O)(c1ncccn1)C2` (stereo not shown) [XX-20, (3-Hydroxy-3-pyrimidin-2-yl-8-aza-bicyclo[3.2.1]oct-8-yl)-[5-(1H-pyrazol-4-yl)-thiophen-3-yl]-methanone]: the IC50 in data set [1] (setting [3]) was no more than 100 nM; in data set [1] (setting [4]), 67 nM; in data set [1] (setting [5]) it was 42 nM. Besides, the Cmax in data set [2] is greater than 1000 ng/mL. Moreover, in data set [2], the “Liver Cmax (maximum liver concentration)” value is recorded as “+++ (>5001 +++)”.
